In article doi:10.1101/2023.10.20.563248v1 (biorxiv, 2023):

Legend:
Conditions in all cases: 1 µM; inhibitor
ALK = ALK (Homo sapiens, UniProt Q9UM73)
CDK2 = CDK2 (Homo sapiens, UniProt P24941)
CDK3/CycC = CDK3/CycC (Homo sapiens, UniProt Q00526)
DAPK1 = DAPK1 (Homo sapiens, UniProt P53355)
DYRK2 = DYRK2 (Homo sapiens, UniProt Q92630)
DYRK3 = DYRK3 (Homo sapiens, UniProt O43781)
EIF2AK3 = EIF2AK3 (Homo sapiens, UniProt Q9NZJ5)
GRK7 = GRK7 (Homo sapiens, UniProt Q8WTQ7)
HCK = HCK (Homo sapiens, UniProt P08631)
MAP3K10 = MAP3K10 (Homo sapiens, UniProt Q02779)
MAPKAPK2 = MAPKAPK2 (Homo sapiens, UniProt P49137)
MARK1 = MARK1 (Homo sapiens, UniProt Q9P0L2)
MEK1 = MEK1 (Homo sapiens, UniProt Q02750)
MELK = MELK (Homo sapiens, UniProt Q14680)
NDR2 = NDR2 (Homo sapiens, UniProt Q9Y2H1)
NEK1 = NEK1 (Homo sapiens, UniProt Q96PY6)
PAK1 = PAK1 (Homo sapiens, UniProt Q13153)
PAK4 = PAK4 (Homo sapiens, UniProt O96013)
PIM1 = PIM1 (Homo sapiens, UniProt P11309)
PKN3 = PKN3 (Homo sapiens, UniProt Q6P5Z2)
PRK1 = PRK1 (Homo sapiens, UniProt Q16512)
PRK2 = PRK2 (Homo sapiens, UniProt Q16513)
PRKX = PRKX (Homo sapiens, UniProt P51817)
PYK2 = PYK2 (Homo sapiens, UniProt Q14289)
SAK = SAK (Homo sapiens, UniProt O00444)
SIK2 = SIK2 (Homo sapiens, UniProt Q9H0K1)
SRPK2 = SRPK2 (Homo sapiens, UniProt P78362)
TEC = TEC (Homo sapiens, UniProt P42680)
TYK2 = TYK2 (Homo sapiens, UniProt P29597)
WNK3 = WNK3 (Homo sapiens, UniProt Q9BYP7)
ZAK = ZAK (Homo sapiens, UniProt Q9NYL2)

Chain of NDR2 (Q9Y2H1 whole entry): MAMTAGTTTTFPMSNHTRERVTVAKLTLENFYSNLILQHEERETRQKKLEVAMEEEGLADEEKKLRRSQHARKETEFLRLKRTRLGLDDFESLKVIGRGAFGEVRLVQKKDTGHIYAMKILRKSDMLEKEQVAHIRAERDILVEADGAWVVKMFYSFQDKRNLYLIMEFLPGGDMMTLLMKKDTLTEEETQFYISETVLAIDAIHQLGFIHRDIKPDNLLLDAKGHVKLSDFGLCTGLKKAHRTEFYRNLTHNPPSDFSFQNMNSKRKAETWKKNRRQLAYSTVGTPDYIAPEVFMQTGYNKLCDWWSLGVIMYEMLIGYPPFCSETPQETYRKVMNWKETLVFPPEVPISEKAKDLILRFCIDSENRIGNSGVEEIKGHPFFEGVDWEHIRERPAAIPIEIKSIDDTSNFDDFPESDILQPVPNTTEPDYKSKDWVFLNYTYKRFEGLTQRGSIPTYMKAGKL
Chain of ALK (Q9UM73 whole entry): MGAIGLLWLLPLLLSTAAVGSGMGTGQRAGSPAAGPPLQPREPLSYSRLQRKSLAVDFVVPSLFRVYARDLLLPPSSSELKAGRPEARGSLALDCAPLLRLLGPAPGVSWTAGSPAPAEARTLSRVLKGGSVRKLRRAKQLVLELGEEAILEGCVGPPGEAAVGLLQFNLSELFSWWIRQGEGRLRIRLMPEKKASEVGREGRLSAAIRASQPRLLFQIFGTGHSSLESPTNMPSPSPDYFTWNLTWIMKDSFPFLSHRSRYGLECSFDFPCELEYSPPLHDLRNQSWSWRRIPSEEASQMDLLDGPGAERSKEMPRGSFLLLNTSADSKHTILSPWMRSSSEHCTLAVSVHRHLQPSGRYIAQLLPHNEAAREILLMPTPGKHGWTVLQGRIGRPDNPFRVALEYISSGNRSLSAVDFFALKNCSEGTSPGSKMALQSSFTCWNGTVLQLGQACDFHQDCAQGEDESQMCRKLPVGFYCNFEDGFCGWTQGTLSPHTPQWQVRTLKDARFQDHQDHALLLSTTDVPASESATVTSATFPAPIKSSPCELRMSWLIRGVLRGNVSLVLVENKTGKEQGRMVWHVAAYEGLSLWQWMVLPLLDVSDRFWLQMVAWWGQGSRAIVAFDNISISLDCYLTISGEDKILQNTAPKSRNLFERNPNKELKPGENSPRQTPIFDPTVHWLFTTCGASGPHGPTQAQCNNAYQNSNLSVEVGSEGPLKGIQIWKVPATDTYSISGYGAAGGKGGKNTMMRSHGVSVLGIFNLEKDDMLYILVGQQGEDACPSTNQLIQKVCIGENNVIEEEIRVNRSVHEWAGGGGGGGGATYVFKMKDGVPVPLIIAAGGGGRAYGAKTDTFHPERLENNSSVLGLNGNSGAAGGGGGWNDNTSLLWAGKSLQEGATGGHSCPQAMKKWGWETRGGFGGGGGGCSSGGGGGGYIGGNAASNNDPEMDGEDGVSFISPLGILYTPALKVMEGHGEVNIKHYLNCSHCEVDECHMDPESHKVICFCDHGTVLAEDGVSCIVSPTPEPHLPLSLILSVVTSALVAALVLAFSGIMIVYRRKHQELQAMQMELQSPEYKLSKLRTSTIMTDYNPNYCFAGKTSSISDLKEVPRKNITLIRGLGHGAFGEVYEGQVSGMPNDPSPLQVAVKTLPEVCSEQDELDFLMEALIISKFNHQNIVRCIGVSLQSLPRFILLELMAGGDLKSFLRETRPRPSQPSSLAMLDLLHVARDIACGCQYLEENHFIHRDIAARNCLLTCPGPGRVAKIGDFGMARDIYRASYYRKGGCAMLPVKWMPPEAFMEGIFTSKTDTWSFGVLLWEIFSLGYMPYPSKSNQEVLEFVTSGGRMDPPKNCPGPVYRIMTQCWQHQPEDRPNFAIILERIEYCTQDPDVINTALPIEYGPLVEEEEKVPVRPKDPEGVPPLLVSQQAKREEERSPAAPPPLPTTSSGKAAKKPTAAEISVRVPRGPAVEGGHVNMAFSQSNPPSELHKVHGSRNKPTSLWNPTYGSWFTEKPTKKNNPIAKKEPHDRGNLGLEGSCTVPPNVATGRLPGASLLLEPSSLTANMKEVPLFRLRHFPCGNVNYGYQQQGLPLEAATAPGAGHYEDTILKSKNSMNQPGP
Chain of CDK3/CycC (Q00526 whole entry): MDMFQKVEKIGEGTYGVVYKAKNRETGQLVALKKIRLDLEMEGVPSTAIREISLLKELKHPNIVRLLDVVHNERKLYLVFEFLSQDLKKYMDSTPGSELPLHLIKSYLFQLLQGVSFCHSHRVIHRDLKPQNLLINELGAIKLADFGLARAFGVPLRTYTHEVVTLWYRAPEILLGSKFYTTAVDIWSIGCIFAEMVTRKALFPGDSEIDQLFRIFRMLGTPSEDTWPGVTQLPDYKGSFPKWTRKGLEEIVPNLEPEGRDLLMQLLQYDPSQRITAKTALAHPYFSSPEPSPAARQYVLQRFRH
Chain of CDK3/CycC (P24863 whole entry partner): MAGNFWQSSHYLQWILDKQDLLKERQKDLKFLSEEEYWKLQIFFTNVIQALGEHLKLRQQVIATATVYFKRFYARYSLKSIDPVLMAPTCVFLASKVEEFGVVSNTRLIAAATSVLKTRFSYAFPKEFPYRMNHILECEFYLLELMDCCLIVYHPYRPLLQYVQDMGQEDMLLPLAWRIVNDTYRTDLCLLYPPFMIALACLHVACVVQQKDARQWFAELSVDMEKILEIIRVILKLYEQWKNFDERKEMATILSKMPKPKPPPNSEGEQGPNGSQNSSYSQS
Chain of MAP3K10 (Q02779 whole entry): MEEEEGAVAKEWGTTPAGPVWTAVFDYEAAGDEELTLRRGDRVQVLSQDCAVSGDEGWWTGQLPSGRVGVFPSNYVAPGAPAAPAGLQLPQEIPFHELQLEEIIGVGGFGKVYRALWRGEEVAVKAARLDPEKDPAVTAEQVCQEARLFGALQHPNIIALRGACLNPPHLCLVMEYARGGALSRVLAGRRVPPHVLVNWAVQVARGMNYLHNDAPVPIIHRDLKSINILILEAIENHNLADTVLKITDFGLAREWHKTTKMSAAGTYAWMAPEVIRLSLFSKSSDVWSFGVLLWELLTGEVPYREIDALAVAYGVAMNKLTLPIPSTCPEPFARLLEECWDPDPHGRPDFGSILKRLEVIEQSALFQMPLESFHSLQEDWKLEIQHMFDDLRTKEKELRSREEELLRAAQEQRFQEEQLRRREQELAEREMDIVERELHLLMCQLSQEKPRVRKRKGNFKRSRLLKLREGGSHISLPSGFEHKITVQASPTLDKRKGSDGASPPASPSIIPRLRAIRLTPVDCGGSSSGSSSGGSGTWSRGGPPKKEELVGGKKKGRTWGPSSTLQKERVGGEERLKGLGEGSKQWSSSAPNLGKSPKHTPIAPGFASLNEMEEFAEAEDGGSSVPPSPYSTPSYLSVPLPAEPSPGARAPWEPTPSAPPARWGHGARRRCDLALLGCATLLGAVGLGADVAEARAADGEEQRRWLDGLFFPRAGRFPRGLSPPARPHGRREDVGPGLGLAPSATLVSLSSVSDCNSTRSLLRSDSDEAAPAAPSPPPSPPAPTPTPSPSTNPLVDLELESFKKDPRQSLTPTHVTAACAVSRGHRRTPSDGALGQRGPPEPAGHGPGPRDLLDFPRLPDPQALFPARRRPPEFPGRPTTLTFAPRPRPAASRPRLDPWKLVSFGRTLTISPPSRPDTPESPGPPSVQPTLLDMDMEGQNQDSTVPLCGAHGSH
Chain of SRPK2 (P78362 whole entry): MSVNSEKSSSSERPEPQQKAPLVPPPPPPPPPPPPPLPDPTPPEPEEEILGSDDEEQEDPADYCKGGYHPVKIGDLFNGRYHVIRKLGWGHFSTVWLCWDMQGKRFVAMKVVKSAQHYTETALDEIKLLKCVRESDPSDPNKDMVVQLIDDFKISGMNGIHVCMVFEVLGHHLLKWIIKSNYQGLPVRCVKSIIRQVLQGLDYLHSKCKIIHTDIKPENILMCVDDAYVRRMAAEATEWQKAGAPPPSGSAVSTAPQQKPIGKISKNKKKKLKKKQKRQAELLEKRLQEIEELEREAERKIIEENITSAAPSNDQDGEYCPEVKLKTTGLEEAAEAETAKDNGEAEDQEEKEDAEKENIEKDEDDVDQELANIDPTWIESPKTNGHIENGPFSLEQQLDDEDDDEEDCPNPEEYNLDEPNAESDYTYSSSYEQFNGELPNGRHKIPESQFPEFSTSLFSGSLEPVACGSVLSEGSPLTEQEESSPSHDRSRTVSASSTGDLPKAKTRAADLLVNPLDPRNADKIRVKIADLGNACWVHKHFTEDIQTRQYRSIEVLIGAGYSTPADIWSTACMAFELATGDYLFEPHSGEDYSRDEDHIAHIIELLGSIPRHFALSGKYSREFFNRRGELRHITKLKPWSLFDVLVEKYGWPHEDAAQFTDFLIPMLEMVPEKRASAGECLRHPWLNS
Chain of PIM1 (P11309 whole entry): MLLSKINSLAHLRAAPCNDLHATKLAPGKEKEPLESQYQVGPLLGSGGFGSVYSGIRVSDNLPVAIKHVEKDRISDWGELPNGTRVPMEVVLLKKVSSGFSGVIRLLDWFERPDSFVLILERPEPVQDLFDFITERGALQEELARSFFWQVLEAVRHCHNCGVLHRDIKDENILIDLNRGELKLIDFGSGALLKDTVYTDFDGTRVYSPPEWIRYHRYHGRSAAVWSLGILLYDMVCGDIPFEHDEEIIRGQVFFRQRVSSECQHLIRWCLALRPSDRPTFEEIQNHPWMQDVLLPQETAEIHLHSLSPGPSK
Chain of MEK1 (Q02750 whole entry): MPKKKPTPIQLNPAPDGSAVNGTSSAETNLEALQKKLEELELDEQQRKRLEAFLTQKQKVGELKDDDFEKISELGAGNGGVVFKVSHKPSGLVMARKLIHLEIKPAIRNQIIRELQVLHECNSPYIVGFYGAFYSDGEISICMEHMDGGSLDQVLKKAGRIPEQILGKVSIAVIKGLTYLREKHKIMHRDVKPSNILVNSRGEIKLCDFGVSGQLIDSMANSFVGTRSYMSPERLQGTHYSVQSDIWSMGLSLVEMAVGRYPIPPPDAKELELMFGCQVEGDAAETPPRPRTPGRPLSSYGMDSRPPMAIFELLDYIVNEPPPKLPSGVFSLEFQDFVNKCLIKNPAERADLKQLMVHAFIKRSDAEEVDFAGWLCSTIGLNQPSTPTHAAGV

SMILES: O=C1NCCCCCNc2nc(c3ccccc3n2)Nc2cc1[nH]n2 [21c, (Z)-3^1H-2,5,11-triaza-1(4,2)-quinazolina-3(3,5)-pyrazolacycloundecaphan-4-one]
- 21c Remaining activity, percent of control [%] (ALK): 100.1%
- 21c Remaining activity, percent of control [%] (CDK2): 103.0%
- 21c Remaining activity, percent of control [%] (CDK3/CycC): 87.0%
- 21c Remaining activity, percent of control [%] (DAPK1): 94.0%
- 21c Remaining activity, percent of control [%] (DYRK2): 91.4%
- 21c Remaining activity, percent of control [%] (DYRK3): 96.4%
- 21c Remaining activity, percent of control [%] (EIF2AK3): 87.8%
- 21c Remaining activity, percent of control [%] (GRK7): 89.2%
- 21c Remaining activity, percent of control [%] (HCK): 94.0%
- 21c Remaining activity, percent of control [%] (MAP3K10): 94.4%
- 21c Remaining activity, percent of control [%] (MAPKAPK2): 106.1%
- 21c Remaining activity, percent of control [%] (MARK1): 96.0%
- 21c Remaining activity, percent of control [%] (MEK1): 118.7%
- 21c Remaining activity, percent of control [%] (MELK): 47.0%
- 21c Remaining activity, percent of control [%] (NDR2): 93.9%
- 21c Remaining activity, percent of control [%] (NEK1): 79.1%
- 21c Remaining activity, percent of control [%] (PAK1): 94.9%
- 21c Remaining activity, percent of control [%] (PAK4): 95.1%
- 21c Remaining activity, percent of control [%] (PIM1): 101.3%
- 21c Remaining activity, percent of control [%] (PKN3): 92.6%
- 21c Remaining activity, percent of control [%] (PRK1): 91.8%
- 21c Remaining activity, percent of control [%] (PRK2): 89.5%
- 21c Remaining activity, percent of control [%] (PRKX): 93.9%
- 21c Remaining activity, percent of control [%] (PYK2): 80.8%
- 21c Remaining activity, percent of control [%] (SAK): 86.5%
- 21c Remaining activity, percent of control [%] (SIK2): 97.5%
- 21c Remaining activity, percent of control [%] (SRPK2): 97.0%
- 21c Remaining activity, percent of control [%] (TEC): 91.4%
- 21c Remaining activity, percent of control [%] (TYK2): 116.8%
- 21c Remaining activity, percent of control [%] (WNK3): 98.5%
- 21c Remaining activity, percent of control [%] (ZAK): 82.9%
